# According to patent US20040043403A1, “Process for determining the biological activity of epidermal growth factor receptor tyrosine kinase inhibitors” (priority 2000, published 2004):
# Columns and labels:
# A431 cells [1] = assay: UniGEM 1 cDNA array expression profile of A431 cells; type: cell-based, human; settings: 24 hours
# Experimental: (§1) The following tissue culture cells are chosen because of their EGFR expression status (Table 1). EGFR expression is measured by Western blotting, using anti-EGFR monoclonal antibodies from Transduction Labs (Lexington, Ky.). The cell lines are obtained from the ATCC (Rockville, […].). The cells are cultured in 5% CO2 at 37° C.
# (§2) 20 million tissue culture cells (about 80% confluent) or 200 million WBCs are incubated for 2 or 24 h in culture medium containing 3 μM of an EGFR tyrosine kinase inhibitor or 0.03% DMSO. Total RNA from cell pellet is isolated using the RNeasy kit (Qiagen). mRNA is isolated using the oligotex mRNA purification kit (Qiagen). The quality of the obtained mRNA is tested by real time RT-PCR using beta-Actin primers (PE Applied Biosystems) with an amplicon size of 300 base pairs (bp). The total RNA is used as a reference to calculate the amount of mRNA-enrichment in the oligotex purified samples.
# (§3) Probes for the UniGEM hybridization are synthesized by Incyte Genomics (Palo Alto, Calif., USA). For each probe 200 ng mRNA (50 ng/μl) is shipped in dry ice. The results are analyzed using the Expressionist Software Package provided by GeneData.
# (§4) Expression profiles (UniGEM V arrays) of 4 tumor cell lines with different EGFR expression status (A431, NCI-H596, NCI-H520 and MDA-MB-468) and of WBCs upon exposure of cells to 3 μM of COMPOUND A for 2 or 24 h are analyzed. As control, cells treated with DMSO for the same time period are used. […] The cDNA array hybridization is repeated with the UniGEM 1 array using the same mRNA (Table 3).
# A431 cells [2] = assay: UniGEM V cDNA array expression profile of A431 cells; type: cell-based, human; settings: 3 μM, 24 hours, RNA from Experiment 1
# Experimental: as §1, §2, §3, §4
# NCI-H596 = assay: Western blot of clusterin induction in NCI-H596 cells; type: cell-based, human; settings: NCI-H596 cells (moderate levels of EGFR), 300 nM, 24 h, vs 0.03% DMSO
# Experimental: (§5) An EGFR tyrosine kinase inhibitor is dissolved in DMSO to obtain a 10 mM stock solution. The stock solution is further diluted in culture medium to final concentrations of 10 nM to 3 μM. 3.5 million cells/100 mm dish/12 ml culture medium are incubated for 24 h in 5% CO2 at 37° C. The medium is replaced with medium containing the EGFR tyrosine kinase inhibitor or DMSO. Cells are incubated for 4 to 32 h. The frozen pellets are lysed in 500 μl of lysis buffer (50 mM Tris-HCl pH 7.5, 1% Sodium Dodecyl Sulfate (SDS)). To shear genomic DNA, the cell lysates are processed in a FastPrep instrument for 20 sec at a speed rating of 4, using the green […] tubes (Bio101#6040-6010). Protein concentrations are determined according to the PIERCE-method (BCA Protein Assay, Reagent A and B). Protein concentration of lysates is adjusted to 1 μg/μl with lysis buffer. 4 parts of cell lysates are mixed with 1 part of 5 fold concentrated Laemmli buffer, the lysates are stored at -20° C. 40 μl of cell lysate is heated for 3 min to 95° C. and directly loaded on to 10% or 15% SDS-PAGE gels. The gels are run at 130 V for 90 min under standard conditions. The separated proteins are semi-dry blotted on to a PVDF membrane (Immobilon-P, Millipore #IPVH 202 00) for 70 min with 45 mA per blot. […]
# NCI-H520 = assay: Western blot of clusterin induction in NCI-H520 cells; type: cell-based, human; settings: NCI-H520 cells (do not express EGFR), 300 nM, 24 h, vs 0.03% DMSO
# Experimental: as §5
# [3] = tested on: Epidermal Growth Factor (EGF)-responsive tumors; settings: disclosed in WO 97/02266; cited from earlier work
smiles,measurement,setting,value
"C[C@@H](Nc1ncnc2[nH]c(-c3ccc(O)cc3)cc12)c1ccccc1 [COMPOUND A, (R)-6-(4-hydroxy-phenyl)-4-[(1-phenyl-ethyl)-amino]-7H-pyrrolo[2,3-d]pyrimidine]","Gene induction, Micro Array UniGEM 1: Acute phase serum amyloid A protein","A431 cells [1]; 3 μM, RNA from Experiment 1",4.4
same,"Gene induction, Micro Array UniGEM 1: Cathepsin H","A431 cells [1]; 3 μM, RNA from Experiment 1",2.2
same,"Gene induction, Micro Array UniGEM 1: Caveolin","A431 cells [1]; 3 μM, RNA from Experiment 1",3.4
same,"Gene induction, Micro Array UniGEM 1: Complement component 3 (C3)","A431 cells [1]; 3 μM, RNA from Experiment 1",3.1
same,"Gene induction, Micro Array UniGEM 1: Complement cytolysis inibitor (Clusterin)","A431 cells [1]; 3 μM, RNA from Experiment 1",2.7
same,"Gene induction, Micro Array UniGEM 1: DNA binding protein inhibitor ID-3","A431 cells [1]; 3 μM, RNA from Experiment 1",2.1
same,"Gene induction, Micro Array UniGEM 1: Extracellular protein S1-5","A431 cells [1]; 3 μM, RNA from Experiment 1",3.3
same,"Gene induction, Micro Array UniGEM 1: TGF-beta induced gene","A431 cells [1]; 3 μM, RNA from Experiment 1",2.1
same,"Gene induction, Micro Array UniGEM 1: TRAIL","A431 cells [1]; 3 μM, RNA from Experiment 1",3.0
same,"Gene induction, Micro Array UniGEM 1: VAC-beta (annexin VIII)","A431 cells [1]; 3 μM, RNA from Experiment 1",3.0
same,Differential Expression (Balanced): Human D-type cyclin (CCND2) mRNA {IM359412},"A431 cells [1]; GB Acc. No. AA010487, 3 μM, versus DMSO treated cells, negative numbers: repressed genes",−8.2
same,Differential Expression (Balanced): ESTs {IM365120},"A431 cells [1]; GB Acc. No. AA025124, 3 μM, versus DMSO treated cells",2.7
same,Differential Expression (Balanced): Human HE4 mRNA for extracellular protease {IM366323},"A431 cells [1]; GB Acc. No. AA025750, 3 μM, versus DMSO treated cells",2.6
same,Differential Expression (Balanced): Human mRNA for precursor of epidermal growth factor receptor {IM469272},"A431 cells [1]; GB Acc. No. AA026089, 3 μM, versus DMSO treated cells",2.8
same,Differential Expression (Balanced): Human cyclin-dependent protein kinase mRNA {IM366824},"A431 cells [1]; GB Acc. No. AA029438, 3 μM, versus DMSO treated cells",2.8
same,Differential Expression (Balanced): Human extracellular protein (S1-5) mRNA {IM470007},"A431 cells [1]; GB Acc. No. AA030000, 3 μM, versus DMSO treated cells",3.3
same,Differential Expression (Balanced): ESTs {IM471869},"A431 cells [1]; GB Acc. No. AA035156, 3 μM, versus DMSO treated cells",3.0
same,Differential Expression (Balanced): Human nucleotide-binding protein mRNA; c {IM376052},"A431 cells [1]; GB Acc. No. AA039353, 3 μM, versus DMSO treated cells, negative numbers: repressed genes",−3.5
same,Differential Expression (Balanced): ESTs {IM485336} contains Alu repetitive elements,"A431 cells [1]; GB Acc. No. AA039628, 3 μM, versus DMSO treated cells, negative numbers: repressed genes",−6.8
same,Differential Expression (Balanced): Human 5′-AMP-activated protein kinase; g {IM376178},"A431 cells [1]; GB Acc. No. AA040600, 3 μM, versus DMSO treated cells, negative numbers: repressed genes",−4.1
same,Differential Expression (Balanced): Human mRNA for pancreatic carcinoma marker {IM376296} (Trop-2),"A431 cells [1]; GB Acc. No. AA041250, 3 μM, versus DMSO treated cells",3.0
same,Differential Expression (Balanced): Human complement component 3 (C3) gene {IM485717},"A431 cells [1]; GB Acc. No. AA041549, 3 μM, versus DMSO treated cells",3.1
same,Differential Expression (Balanced): Human annexin VIII mRNA; complete cds. {IM376634} (VAC-beta),"A431 cells [1]; GB Acc. No. AA046102, 3 μM, versus DMSO treated cells",3.0
same,Differential Expression (Balanced): Human mRNA for caveolin {IM488533},"A431 cells [1]; GB Acc. No. AA047243, 3 μM, versus DMSO treated cells",3.4
same,Differential Expression (Balanced): Fibronectin {IM512287},"A431 cells [1]; GB Acc. No. AA057694, 3 μM, versus DMSO treated cells, negative numbers: repressed genes",−8.8
same,Differential Expression (Balanced): ESTs {IM377004},"A431 cells [1]; GB Acc. No. AA057780, 3 μM, versus DMSO treated cells",2.7
same,Differential Expression (Balanced): TransformIng growth factor-beta induced gene product (BIGH3),"A431 cells [1]; GB Acc. No. AA057802, 3 μM, versus DMSO treated cells",2.1
same,Differential Expression (Balanced): Human mRNA for cathepsin H (E.C.3.4.22.1) {IM489348},"A431 cells [1]; GB Acc. No. AA058337, 3 μM, versus DMSO treated cells",2.2
same,Differential Expression (Balanced): Human fibronectin gene extra type III re {IM151144},"A431 cells [1]; GB Acc. No. H03907, 3 μM, versus DMSO treated cells, negative numbers: repressed genes",−6.9
same,Differential Expression (Balanced): ESTs {IM46265},"A431 cells [1]; GB Acc. No. H09077, 3 μM, versus DMSO treated cells, negative numbers: repressed genes",−21.9
same,Differential Expression (Balanced): Human ribosomal protein L5 pseudogene mRNA {IM50482},"A431 cells [1]; GB Acc. No. H17614, 3 μM, versus DMSO treated cells, negative numbers: repressed genes",−3.6
same,Differential Expression (Balanced): ESTs {IM172005},"A431 cells [1]; GB Acc. No. H18621, 3 μM, versus DMSO treated cells, negative numbers: repressed genes",−3.1
same,Differential Expression (Balanced): Human acute phase serum amyloid A protein {IM161456},"A431 cells [1]; GB Acc. No. H25546, 3 μM, versus DMSO treated cells",4.4
same,Differential Expression (Balanced): Human TNF-related apoptosis inducing ligand TRAIL {IM203132},"A431 cells [1]; GB Acc. No. H54629, 3 μM, versus DMSO treated cells",4.0
same,Differential Expression (Balanced): Human complement cytolysis inhibitor (CLI) mRNA; complete cds (Clusterin),"A431 cells [1]; GB Acc. No. M25915, 3 μM, versus DMSO treated cells",2.7
same,Differential Expression (Balanced): ESTs {248032},"A431 cells [1]; GB Acc. No. N53767, 3 μM, versus DMSO treated cells",2.6
same,Differential Expression (Balanced): Rat N-syndecan mRNA {IM26677},"A431 cells [1]; GB Acc. No. R13994, 3 μM, versus DMSO treated cells",2.9
same,Differential Expression (Balanced): Human fibronectin (fn) 3′ coding region {IM136798},"A431 cells [1]; GB Acc. No. R36450, 3 μM, versus DMSO treated cells, negative numbers: repressed genes",−4.7
same,Differential Expression (Balanced): ESTs {IM23605},"A431 cells [1]; GB Acc. No. R39436, 3 μM, versus DMSO treated cells",2.6
same,Differential Expression (Balanced): PUTATIVE LYMPHOCYTE G0/G1 SWITCH PROTEIN 2 {IM67939},"A431 cells [1]; GB Acc. No. T52813, 3 μM, versus DMSO treated cells, negative numbers: repressed genes",−3.3
same,Differential Expression (Balanced): ESTs {IM73785},"A431 cells [1]; GB Acc. No. T54672, 3 μM, versus DMSO treated cells",2.6
same,Differential Expression (Balanced): ESTs {IM74546},"A431 cells [1]; GB Acc. No. T59122, 3 μM, versus DMSO treated cells",2.9
same,Differential Expression (Balanced): Human mitosin mRNA; complete cds. {IM113765},"A431 cells [1]; GB Acc. No. T76993, 3 μM, versus DMSO treated cells, negative numbers: repressed genes",−3.0
same,Differential Expression (Balanced): DNA-BINDING PROTEIN INHIBITOR ID-3 {IM323946},"A431 cells [1]; GB Acc. No. W46413, 3 μM, versus DMSO treated cells",2.1
same,Differential Expression (Balanced): Human nuclear orphan receptor LXR-alpha {IM357775},"A431 cells [1]; GB Acc. No. W95433, 3 μM, versus DMSO treated cells, negative numbers: repressed genes",−3.0
same,"Gene induction, Micro Array UniGEM V: Acute phase serum amyloid A protein",A431 cells [2],3.3
same,"Gene induction, Micro Array UniGEM V: Cathepsin H",A431 cells [2],2.4
same,"Gene induction, Micro Array UniGEM V: Complement component 3 (C3)",A431 cells [2],3.3
same,"Gene induction, Micro Array UniGEM V: Complement cytolysis inibitor (Clusterin)",A431 cells [2],6.6
same,"Gene induction, Micro Array UniGEM V: DNA binding protein inhibitor ID-3",A431 cells [2],2.6
same,"Gene induction, Micro Array UniGEM V: Extracellular protein S1-5",A431 cells [2],2.2
same,"Gene induction, Micro Array UniGEM V: TGF-beta induced gene",A431 cells [2],2.7
same,"Gene induction, Micro Array UniGEM V: TRAIL",A431 cells [2],4.0
same,"Gene induction, Micro Array UniGEM V: VAC-beta (annexin VIII)",A431 cells [2],2.2
same,"Clusterin induction, Western blot (FIG. 4)",NCI-H596,no significant clusterin induction
same,"Clusterin induction, Western blot (FIG. 4)",NCI-H520,no detectable clusterin levels
same,Anti-proliferative activity against EGF-responsive tumors,[3],exhibits anti-proliferative activity
